From patent publication US8445030B2 (priority 2009, dated 2013)
“Also recorded” adds a separate entry of the source. Where two headings read alike, the source gives them in different places.

Experiments:
microorganisms = assay: Antiseptic function of components in CaF2-based formulations (Examples 2-4)
Microbes = assay: Microbial efficacy and duration of effects of components; conditions: component of the spray of Example 1
[1] = cited from earlier work
[2] = same as normal skin (pH 5.4-5.5)
[3] = component of Example 2 wound gel
[4] = component of Example 4 hand disinfection spray
[5] = component of Example 3 hair gel

CCO [Ethanol]
fast acting antiseptic action (microorganisms; [3]): log 6, fast acting
fast acting antiseptic action (microorganisms; [4]): log 6, fast acting

O=C(O)CC(O)(CC(=O)O)C(=O)O [Citric acid]
Microbial Efficacy (Microbes): bactericide, virucide,; also recorded: fungicide

OO [H2O2 (hydrogen peroxide), hydrogen peroxide]
LD 50 Oral on Rats ([1]; rat, in vivo, po): 2000 mg/kg
Duration of Effects (Microbes): short (short = within 60 sec up to max 5 min)
Microbial Efficacy (Microbes): bactericide, virucide,; also recorded: fungicide

[Ca+2].[F-].[F-] [CaF2 (calcium fluoride), calcium fluoride]
LD 50 Oral on Rats ([1]; oral, rats): 4500 mg/kg
persistent antiseptic action (microorganisms; [3]): log 3, persistent
persistent antiseptic action (microorganisms; [5]): log 3, persistent
persistent antiseptic action (microorganisms; [4]): log 3, persistent
Microbial Efficacy (Microbes): bactericide, virucide,; also recorded: fungicide
pH [2]: 5.4

O=C(O)[C@]1(O)C[C@@H](O)[C@@H](O)[C@H](O)C1 [Quinic acid]
LD 50 Oral on Rats ([1]; rat, in vivo, po): >8000 mg/kg
Microbial Efficacy (Microbes): bactericide, virucide,; also recorded: fungicide

CC(C)O [Isopropyl alcohol]
fast acting antiseptic action (microorganisms; [5]): log 6, fast acting

O=C(O)C=Cc1ccccc1 [Cinnamic acid]
Duration of Effects (Microbes): short to long
Microbial Efficacy (Microbes): bactericide, virucide,; also recorded: fungicide

[Na+].[O-]Cl [NaOCl (Javel water), NaOCl]
LD 50 Oral on Rats ([1]; oral, rats): 2000 mg/kg
fast acting antiseptic action (microorganisms; [4]): log 6, fast acting
Microbial Efficacy (Microbes): bactericide, virucide,; also recorded: fungicide
